From patent publication US8426367B2, “Peptides specific for human blood outgrowth endothelial cells” (The University of North Carolina at Chapel Hill, priority 2007, dated 2013)

Columns and labels:
[1] = tested on: human blood outgrowth endothelial cells (HBOEC); assay: Homogeneous phage recovery (relative binding) on HBOEC; settings: for concentration dependence of homogeneous recovery (binding to HBOEC): 1.10^9, 1.10^10, 1.10^11 pfu, 1 h at 4° C.; for concentration dependence of homogeneous recovery (binding to HBOEC) / relative recovery / affinity-avidity among the four selected phage clones: FIG. 1B; for relative recovery / affinity-avidity among the four selected phage clones: four clones with different consensus motifs
Method: Cells at 80% confluence were detached by treating with 0.05% trypsin-EDTA, washed once with EGM-2 medium and resuspended in EGM-2 containing 1% BSA at 1.10^5 cells per ml. In the pre-clearing step, 1 ml of HUVEC suspension at 1.10^5 cells per ml were incubated with 10 μl of PhD-12 peptide phage display system (New England Biolabs, Beverly, Mass.) within 1.5 ml Eppendorf tube for 2 hours at 4° C.; the mixture was then centrifuged. In the screening step, the unbound phage pool remaining in the supernatant was transferred to a fresh tube and incubated with 1 ml of HBOEC at 1.10^5 cells per ml. After 1 hour incubation at 4° C., the cell-phage complexes were separated by centrifugation. Following five intensive washes with TBS-0.5% Tween-20 buffer the bound phage was non-specifically eluted with 0.2 M Glycine-HCl buffer (pH 2.2) for 10 min. The eluate was immediately neutralized by 1M Tris.HCl buffer (pH 9.0). An aliquot of the eluted phage was used for determining titer by plaque assay. The rest of the phage eluate was amplified in mid-log phase E. coli ER2738 (New England Biolabs), and purified by precipitation with polyethylene glycol. An aliquot of the amplified phage was subsequently re-applied to newly trypsinized cells for a total of three biopanning rounds and two amplification steps.
Once isolated individual phage clones were subjected to evaluation of relative binding. High titer stocks of homogeneous phage were generated. Serially diluted phage (1.10^9 pfu, 1.10^10 pfu, and 1.10^11 pfu) were incubated with HBOEC (1.10^5 cells) for 1 h at 4° C. and then subjected to the same wash protocol used for the selection experiments. In parallel the same procedure was carried in a blocked Eppendorf tube without HBOEC to test for non specific binding for each selected sequence to the plastic container. Binding ratio is defined as recovery of phage bound to the target cells normalized to the recovery of phage non-specifically bound to the plastic.

[2] = tested on: panel of other cell types; assay: Binding specificity: biopanning of HBOEC-selected phage clones on a panel of other cell types; parameters: species or system human; settings: 1.10^11 phage, 1 hour at 4° C., FIG. 3
Method: Lymphocytes and neutrophils were obtained from the same preparation. Lymphocytes were collected from the supernatant of the cultured buffy coat mononuclear cells that were allowed to adhere for 48 hours. The cell concentration was adjusted to 1.10^5 cells per ml.
Neutrophils were collected from the lower portion of the density gradient preparation. The upper layers were removed and processed as described above. The neutrophil-rich Histopaque layer was transferred to a centrifuge tube and diluted in fresh RPMI to wash the cells free of Histopaque. The suspension was centrifuged at 700×g for 15 min at room temperature. The supernatant was aspirated and the pellet resuspended in 10 ml of RPMI and centrifuged at 700×g for 10 min at room temperature. Contaminating red cells were lysed by quickly re-suspending the pellet in sterile water at 4° C. After 30 sec an equal volume of 1.8% saline solution was added in order to return the solution to isotonicity. The suspension was then centrifuged for 10 min at 250×g at 4° C. The cell lysis step was repeated. The final pellet was re-suspended and concentration adjusted to 1.10^5 cells per ml.
(§1) HUVEC were from the American Type Culture Collection (ATCC, Manassas, Va.). Passages 4 to 8 were used in this study. HUVEC were cultured in EGM-MV medium (Cambrex) at 37° C. in an incubator with humid atmosphere and 5% CO2.
Peripheral blood human HL-60 promyelocytic cells from the American Type Culture Collection (ATCC) were cultured in RPMI 1640 medium supplemented with 20% fetal bovine serum.
The specificity of HBOEC-selected phage clones was determined by biopanning on a panel of other cell types. The biopanning procedure was carried as described above with the exception of including the pre-clearing incubation step.

HUVEC = assay: Cell binding assay: HUVEC attachment to peptide-modified substrates; format: cell-based, human; settings: compared to RGE negative controls; FIG. 8D
Method: as §1
Peptide sequences were immobilized to methacrylic terpolymers via one step chain transfer controlled free radical polymerization as described by Fussell and Cooper (Fussell 2004a and Fussell 2004b). The monomers used in the reactions were n-hexyl methacrylate (HMA) (Alfa Aesar, Ward Hill, Mass.), methyl methacrylate (MMA) (ACROS Organics, Pittsburgh, Pa.), and methacrylic acid (MAA) (ACROS Organics, Pittsburgh, Pa.), with 2,2-azobisisobutyronitrile (AIBN) (Aldrich Chemical, Milwaukee, Wis.) as the initiator. The molar ratio of the monomers in the reaction mixture was HMA:MMA:MAA—20:78:2. The peptides were added with the monomers after the solvent was purged with argon. The reaction temperature for the polymerization was 55-60° C. and reactions were carried out overnight.
Peptide grafted materials were coated on round microscope cover glass slides. Glass slides were sterilized by immersion in 70% ethanol. […] Digital images were taken from 15 random fields per sample and quantified by computer assisted analysis.

Substance	concentration dependence of homogeneous recovery (binding to HBOEC) [1]	binding ratio (recovery of phage bound to target cells normalized to phage non-specifically bound to plastic) ([1]; 1.10^11 pfu homogeneous phage, 1.10^5 HBOEC, 1 hour at 4° C., FIG. 2)	relative recovery among phage bearing the TP(S/T/G) motif ([1]; 1.10^11 pfu, FIG. 2)	relative recovery / affinity-avidity among the four selected phage clones [1]	recovery on cell types other than the target cells [2]	HUVEC attachment (HUVEC)
TPSLEQRTVYAK (Human outgrowth endothelial cell-binding peptides isolated from phage library) [SEQ ID NO:17]	bind HBOEC over a range of concentrations in a dose-dependent manner	43±20	highest recovery	highest recovery	No significant recovery	–
fibronectin	–	–	–	–	–	statistically significant
SPPPSNAGSHHV (Human outgrowth endothelial cell-binding peptides isolated from phage library) [SEQ ID NO:32]	bind HBOEC over a range of concentrations in a dose-dependent manner	–	–	–	No significant recovery	–
SVPPRYTLTLQW (Human outgrowth endothelial cell-binding peptides isolated from phage library) [SEQ ID NO:7]	bind HBOEC over a range of concentrations in a dose-dependent manner	–	–	–	No significant recovery	–
MPTLTRAPHTAC (Human outgrowth endothelial cell-binding peptides isolated from phage library) [SEQ ID NO:37]	bind HBOEC over a range of concentrations in a dose-dependent manner	–	–	lowest affinity/avidity	No significant recovery	–
